Reference: patent US10294202B2, “Pyrrolidinones as herbicides” (FMC Corporation, priority 2013, dated 2019)

Legend:
[1] = test system: pigweed; test: Test A pre-/postemergence herbicide test; type: in vivo, Amaranthus retroflexus; conditions: for Pigweed plant response rating: Preemergence, visual rating on 0 to 100 scale (0 no effect, 100 complete control)
Method in brief: (§1)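 Formulated compound (non-phytotoxic solvent, surfactant) sprayed pre- onto soil of seeded loam/sand pots or post- onto seedlings at 1–2 leaves; ~10 d greenhouse; 0–100 visual control rating versus untreated.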

[2] = test system: wheat; test: Test A pre-/postemergence herbicide test; type: in vivo, Triticum aestivum; conditions: for Wheat plant response rating: Preemergence, visual rating on 0 to 100 scale (0 no effect, 100 complete control)
Method in brief: as §1

[3] = test system: corn; test: Test A pre-/postemergence herbicide test; type: in vivo, Zea mays; conditions: for Corn plant response rating: Preemergence, visual rating on 0 to 100 scale (0 no effect, 100 complete control)
Method in brief: as §1

[4] = test system: rice; test: Test B flooded paddy test; type: in vivo, Oryza sativa; conditions: 250 g ai/ha, Flood; scale of 0 to 100 where 0 is no effect and 100 is complete control
Method in brief: (§2)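 Visual ratings from 0, meaning no effect, up to 100, meaning complete control, were made by comparison with untreated controls 13 to 15 days after treatment. Test compounds went straight into floodwater standing 3 cm over the soil of pots holding 2-leaf seedlings.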

[5] = test system: ducksalad; test: Test B flooded paddy test; type: in vivo, Heteranthera limosa; conditions: 250 g ai/ha, Flood; scale of 0 to 100 where 0 is no effect and 100 is complete control
Method in brief: as §2

[6] = test system: ryegrass, Italian; test: Test C pre-/postemergence herbicide test; type: in vivo, Lolium multiflorum
Method in brief: (§3)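 Compound solutions contained surfactant in a non-phytotoxic solvent. These were sprayed onto pots of loam/sand sown with seeds, and onto young plants (2 to 18 cm, 1- to 4-leaf) in sphagnum peat–vermiculite mix. Visual injury scores (0 none, 100 complete control) were recorded after 13 to 15 days.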

[7] = test system: corn; test: Test C pre-/postemergence herbicide test; type: in vivo, Zea mays
Method in brief: as §3

[8] = test system: johnsongrass; test: Test C pre-/postemergence herbicide test; type: in vivo, Sorghum halepense
Method in brief: as §3

[9] = test system: lambsquarters; test: Test C pre-/postemergence herbicide test; type: in vivo, Chenopodium album
Method in brief: as §3

[10] = test system: morningglory; test: Test C pre-/postemergence herbicide test; type: in vivo, Ipomoea coccinea
Method in brief: as §3

[11] = test system: nutsedge, yellow; test: Test C pre-/postemergence herbicide test; type: in vivo, Cyperus esculentus
Method in brief: as §3

[12] = test system: ragweed; test: Test C pre-/postemergence herbicide test; type: in vivo, Ambrosia elatior
Method in brief: as §3

[13] = Postemergence, 125 g ai/ha, 0 to 100 scale, 0 no effect, 100 complete control
[14] = Postemergence, 500 g ai/ha, 0 to 100 scale (0 no effect, 100 complete control)
[15] = preemergence, 500 g ai/ha, 0 to 100 scale
[16] = Postemergence, 31 g ai/ha, scale 0 (no effect) to 100 (complete control)
[17] = Postemergence, 62 g ai/ha, scale 0 to 100 (0 no effect, 100 complete control)
[18] = Postemergence, 125 g ai/ha, scale 0 to 100 (0 no effect, 100 complete control)
[19] = Postemergence, 250 g ai/ha, scale 0 to 100 (0 no effect, 100 complete control)
[20] = Preemergence, 62 g ai/ha, scale 0 to 100
[21] = Preemergence, 125 g ai/ha, scale 0 to 100 (0 no effect, 100 complete control)
[22] = Preemergence, 31 g ai/ha, scale 0 to 100 (0 no effect, 100 complete control)
[23] = Preemergence, 31 g ai/ha, scale 0 to 100, 0 is no effect and 100 is complete control

In the case of `O=C1NCC(c2ccc(Cl)c(F)c2)C1C(=O)Nc1cccc(F)c1F` (centres unmarked) [Compound 52], the “Plant response rating, Pigweed” value [1, 13] is reported as 0, the “Plant response rating, Pigweed” value [1, 14] is reported as 40 and the “Pigweed plant response rating” value ([1]; 125 g ai/ha) is reported as 0. The “Plant response rating, Pigweed” value [1, 15] was 40, the “Plant response rating, Wheat” value [2, 13] was 0 and the “Plant response rating, Wheat” value [2, 14] was 30. The “Wheat plant response rating” value ([2]; 125 g ai/ha) was 0, the “Plant response rating, Wheat” value [2, 15] was 0 and the “Plant response rating, Corn” value [3, 13] was 0. For the same compound, the “Plant response rating, Corn” value [3, 14] was 30, the “Corn plant response rating” value ([3]; 125 g ai/ha) was 0 and the “Plant response rating, Corn” value [3, 15] was 0. For the same compound, the “Plant response rating, Rice” value [4] was 25, the “Plant response rating, Ducksalad” value [5] was 90 and the “Plant response rating, Ryegrass, Italian” value [6, 16] was 0. For the same compound, the “Plant response rating, Ryegrass, Italian” value [6, 17] was 0, the “Plant response rating, Ryegrass, Italian” value [6, 18] was 0 and the “Plant response rating, Ryegrass, Italian” value [6, 19] was 0. For the same compound, the “Plant response rating, Ryegrass, Italian” value [6, 20] was 0, the “Plant response rating, Ryegrass, Italian” value [6, 21] was 0 and the “Plant response rating, Corn” value [7, 16] was 0. For the same compound, the “Plant response rating, Corn” value [7, 17] was 0, the “Plant response rating, Corn” value [7, 18] was 5 and the “Plant response rating, Corn” value [7, 19] was 5. For the same compound, the “Plant response rating, Corn” value [7, 20] was 10, the “Plant response rating, Corn” value [7, 21] was 10 and the “Corn plant response rating” value [7, 22] was 10. For the same compound, the “Plant response rating, Corn” value ([7]; Preemergence, 250 g ai/ha, scale 0 to 100 (0 no effect, 100 complete control)) was 10, the “Plant response rating, Johnsongrass” value [8, 16] was 0 and the “Plant response rating, Johnsongrass” value [8, 17] was 0. For the same compound, the “Plant response rating, Johnsongrass” value [8, 18] was 0, the “Plant response rating, Johnsongrass” value [8, 19] was 0 and the “Plant response rating, Johnsongrass” value [8, 20] was 0. The “Plant response rating, Johnsongrass” value [8, 21] was 10, the “Plant response rating, Lambsquarters” value [9, 17] was 10 and the “Plant response rating, Lambsquarters” value [9, 18] was 40. The “Plant response rating, Lambsquarters” value [9, 19] was 40, the “Plant response rating, Lambsquarters” value [9, 20] was 40 and the “Plant response rating, Lambsquarters” value [9, 21] was 70. The “Plant response rating, Morningglory” value [10, 16] was 5, the “Plant response rating, Morningglory” value [10, 17] was 10 and the “Plant response rating, Morningglory” value [10, 18] was 10. For the same compound, the “Plant response rating, Morningglory” value [10, 19] was 30, the “Plant response rating, Morningglory” value [10, 20] was 0 and the “Plant response rating, Morningglory” value [10, 21] was 0. For the same compound, the “Plant response rating, Nutsedge, Yellow” value [11, 16] was 10, the “Plant response rating, Nutsedge, Yellow” value [11, 17] was 10 and the “Plant response rating, Nutsedge, Yellow” value [11, 18] was 10. The “Plant response rating, Nutsedge, Yellow” value [11, 19] was 10, the “Plant response rating, Nutsedge, Yellow” value [11, 20] was 25 and the “Plant response rating, Nutsedge, Yellow” value [11, 21] was 25. The “Plant response rating, Ragweed” value [12, 16] was 10, the “Plant response rating, Ragweed” value [12, 17] was 10 and the “Plant response rating, Ragweed” value [12, 18] was 50. The “Plant response rating, Ragweed” value [12, 19] was 55, the “Plant response rating, Ragweed” value [12, 20] was 0 and the “Plant response rating, Ragweed” value [12, 21] was 0.

For `O=C1NCC(c2ccc(F)c(Cl)c2)C1C(=O)Nc1ccccc1F` (centres unmarked) [Compound 60], the “Plant response rating, Pigweed” value [1, 13] was 0, the “Plant response rating, Pigweed” value [1, 14] was 0 and the “Pigweed plant response rating” value ([1]; 125 g ai/ha) was 0. For the same compound, the “Plant response rating, Pigweed” value [1, 15] was 0, the “Plant response rating, Wheat” value [2, 13] was 0 and the “Plant response rating, Wheat” value [2, 14] was 50. The “Wheat plant response rating” value ([2]; 125 g ai/ha) was 0, the “Plant response rating, Wheat” value [2, 15] was 0 and the “Plant response rating, Corn” value [3, 13] was 0. For the same compound, the “Plant response rating, Corn” value [3, 14] was 60, the “Corn plant response rating” value ([3]; 125 g ai/ha) was 0 and the “Plant response rating, Corn” value [3, 15] was 0. For the same compound, the “Plant response rating, Rice” value [4] was 0, the “Plant response rating, Ducksalad” value [5] was 90 and the “Plant response rating, Ryegrass, Italian” value [6, 16] was 0. The “Plant response rating, Ryegrass, Italian” value [6, 17] was 0, the “Plant response rating, Ryegrass, Italian” value [6, 18] was 0 and the “Plant response rating, Ryegrass, Italian” value [6, 20] was 0. The “Plant response rating, Ryegrass, Italian” value [6, 21] was 0, the “Plant response rating, Corn” value [7, 16] was 0 and the “Plant response rating, Corn” value [7, 17] was 0. The “Plant response rating, Corn” value [7, 18] was 0, the “Plant response rating, Corn” value [7, 20] was 10 and the “Plant response rating, Corn” value [7, 21] was 20. For the same compound, the “Corn plant response rating” value [7, 22] was 0, the “Plant response rating, Johnsongrass” value [8, 16] was 5 and the “Plant response rating, Johnsongrass” value [8, 17] was 5. The “Plant response rating, Johnsongrass” value [8, 18] was 5, the “Plant response rating, Johnsongrass” value [8, 20] was 20 and the “Plant response rating, Johnsongrass” value [8, 21] was 20. For the same compound, the “Plant response rating, Lambsquarters” value [9, 16] was 5, the “Plant response rating, Lambsquarters” value [9, 17] was 20 and the “Plant response rating, Lambsquarters” value [9, 18] was 20. For the same compound, the “Plant response rating, Lambsquarters” value [9, 21] was 10, the “Plant response rating, Morningglory” value [10, 16] was 5 and the “Plant response rating, Morningglory” value [10, 17] was 10. The “Plant response rating, Morningglory” value [10, 18] was 10, the “Plant response rating, Morningglory” value [10, 20] was 10 and the “Plant response rating, Morningglory” value [10, 21] was 10. The “Plant response rating, Nutsedge, Yellow” value [11, 16] was 0, the “Plant response rating, Nutsedge, Yellow” value [11, 17] was 0 and the “Plant response rating, Nutsedge, Yellow” value [11, 18] was 5. For the same compound, the “Plant response rating, Nutsedge, Yellow” value [11, 20] was 0, the “Plant response rating, Nutsedge, Yellow” value [11, 21] was 15 and the “Plant response rating, Ragweed” value [12, 16] was 10. The “Plant response rating, Ragweed” value [12, 17] was 25, the “Plant response rating, Ragweed” value [12, 18] was 35 and the “Plant response rating, Ragweed” value [12, 20] was 10. For the same compound, the “Plant response rating, Ragweed” value [12, 21] was 25.

For `O=C1NCC(c2cccc(OC(F)(F)F)c2)C1C(=O)Nc1ccccc1F` (centres unmarked) [Compound 69], the “Plant response rating, Pigweed” value [1, 13] was 20, the “Plant response rating, Pigweed” value [1, 14] was 30 and the “Pigweed plant response rating” value ([1]; 125 g ai/ha) was 0. For the same compound, the “Plant response rating, Pigweed” value [1, 15] was 20, the “Plant response rating, Wheat” value [2, 13] was 0 and the “Plant response rating, Wheat” value [2, 14] was 40. For the same compound, the “Wheat plant response rating” value ([2]; 125 g ai/ha) was 0, the “Plant response rating, Wheat” value [2, 15] was 20 and the “Plant response rating, Corn” value [3, 13] was 20. The “Plant response rating, Corn” value [3, 14] was 90, the “Corn plant response rating” value ([3]; 125 g ai/ha) was 0 and the “Plant response rating, Corn” value [3, 15] was 0. The “Plant response rating, Rice” value [4] was 30, the “Plant response rating, Ducksalad” value [5] was 85 and the “Ryegrass, Italian plant response rating” value [6, 23] was 0. The “Plant response rating, Ryegrass, Italian” value [6, 20] was 0, the “Plant response rating, Ryegrass, Italian” value [6, 21] was 0 and the “Plant response rating (scale of 0 to 100), Ryegrass, Italian” value ([6]; Preemergence, 250 g ai/ha) was 10. For the same compound, the “Corn plant response rating” value [7, 23] was 15, the “Plant response rating, Corn” value [7, 20] was 15 and the “Plant response rating, Corn” value [7, 21] was 25. For the same compound, the “Plant response rating (scale of 0 to 100), Corn” value ([7]; Preemergence, 250 g ai/ha) was 30, the “Johnsongrass plant response rating” value [8, 23] was 0 and the “Plant response rating, Johnsongrass” value [8, 20] was 0. The “Plant response rating, Johnsongrass” value [8, 21] was 0, the “Plant response rating (scale of 0 to 100), Johnsongrass” value ([8]; Preemergence, 250 g ai/ha) was 0 and the “Lambsquarters plant response rating” value [9, 23] was 35. The “Plant response rating, Lambsquarters” value [9, 20] was 35, the “Plant response rating, Lambsquarters” value [9, 21] was 65 and the “Plant response rating (scale of 0 to 100), Lambsquarters” value ([9]; Preemergence, 250 g ai/ha) was 85. The “Morningglory plant response rating” value [10, 23] was 20, the “Plant response rating, Morningglory” value [10, 21] was 25 and the “Plant response rating (scale of 0 to 100), Morningglory” value ([10]; Preemergence, 250 g ai/ha) was 25. The “Nutsedge, Yellow plant response rating” value [11, 23] was 0, the “Plant response rating, Nutsedge, Yellow” value [11, 21] was 0 and the “Plant response rating (scale of 0 to 100), Nutsedge, Yellow” value ([11]; Preemergence, 250 g ai/ha) was 10. For the same compound, the “Ragweed plant response rating” value [12, 23] was 0, the “Plant response rating, Ragweed” value [12, 20] was 0 and the “Plant response rating, Ragweed” value [12, 21] was 0. The “Plant response rating (scale of 0 to 100), Ragweed” value ([12]; Preemergence, 250 g ai/ha) was 20.
